Among the test systems are HL-60; K562; SF-295; IGROV-1; MDA-MB-231; MCF7; HCC 2998; SNB-75; TK-10; RXF 393; 786-0; NCI-H460; KM12; COLO 205; Malme-3M; M14; SK-MEL-2; HT-29; BT-549; SNB-19.
Common to all, as to test: inhibition of tumour cell growth, NCI panel, 48 h

The structures appear in SMILES notation.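 Five concentrations, 48 hours, 96-well plates. GI50 = concentration required for 50% inhibition of growth.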 Activity calls are given as the source filed them. Rule as the data show it: active = GI50 up to about 1.1 µM and inactive = higher.

For the compound `CN(Cc1cnc2nc(N)nc(N)c2n1)c1ccc(C(=O)NC(CCC(=O)O)C(=O)O)c2ccccc12` (stereo not given), the GI50 is 0.000435 µM (active) with HL-60; 0.000301 µM (active) in the test with K562; 0.00604 µM (active) in the test on SF-295; 0.0137 µM (active) in the test on IGROV-1; < 0.1 µM (active) in the test with MDA-MB-231; 0.00163 µM (active) in the test on MCF7. Moreover, the GI50 was 0.00145 µM (active) with HCC 2998; 0.0693 µM (active) in the test on SNB-75; 0.0458 µM (active) in the test with TK-10; < 0.1 µM (active) in the test on RXF 393; 0.00303 µM (active) in the test on 786-0; 0.0011 µM (active) in the test on NCI-H460. The GI50 in the test with KM12 is 0.00256 µM (active); in the test with COLO 205 it was 0.0391 µM (active); with Malme-3M it was 0.0356 µM (active); in the test on M14, 0.00869 µM (active); in the test with SK-MEL-2 it was < 0.1 µM (active); in the test on HT-29, 0.00168 µM (active). Besides, the results for the GI50 with BT-549 and in the test with SNB-19 were 0.092 µM (active) and 0.0612 µM (active), respectively.
Regarding `O=C(O)c1ccc(Nc2cnc3ccc(C(F)(F)F)cc3n2)cc1`, the GI50 with HL-60 is 5.4 µM (inactive); with K562, 20.9 µM (inactive); in the test with SF-295, 19.6 µM (inactive); in the test on IGROV-1 it was 12.4 µM (inactive); with MDA-MB-231, 19.5 µM (inactive); in the test with MCF7, 33 µM (inactive). Moreover, the GI50 in the test with HCC 2998 was 6.61 µM (inactive); in the test with SNB-75, 11.7 µM (inactive); in the test on TK-10 it was 13.6 µM (inactive); with RXF 393, 12.6 µM (inactive); in the test with 786-0, 38.9 µM (inactive); in the test with NCI-H460 it was 28.1 µM (inactive). In addition, the GI50 in the test on KM12 is 16.5 µM (inactive); in the test with COLO 205 it was 17.2 µM (inactive); with Malme-3M, 32.4 µM (inactive); in the test with M14, 38.6 µM (inactive); with SK-MEL-2, 13.2 µM (inactive); in the test with HT-29, 17.1 µM (inactive). Besides, the GI50 was 20.9 µM (inactive) with BT-549 and 18.8 µM (inactive) in the test with SNB-19.
Take `O=C1c2c(F)c(F)c(F)c(F)c2SC2=NCCN12`: the GI50 in the test with HL-60 was 2.19 µM (inactive); in the test on K562, 2.1 µM (inactive); in the test on SF-295, 17.5 µM (inactive); with IGROV-1, 7.19 µM (inactive); in the test with MDA-MB-231, 8.75 µM (inactive); in the test on MCF7, 8.15 µM (inactive). For the same compound, the GI50 was 14.5 µM (inactive) in the test with HCC 2998; 16 µM (inactive) in the test on SNB-75; 8.69 µM (inactive) with TK-10; 2.47 µM (inactive) in the test on RXF 393; 7.26 µM (inactive) in the test on 786-0; 6.53 µM (inactive) in the test on NCI-H460. For the same compound, the GI50 is 12.6 µM (inactive) with KM12; 7.23 µM (inactive) with COLO 205; 5.65 µM (inactive) in the test with Malme-3M; 4.53 µM (inactive) in the test with M14; 1.84 µM (inactive) in the test with SK-MEL-2; 3.18 µM (inactive) in the test on HT-29. The GI50 in the test on BT-549 was 14.8 µM (inactive); in the test on SNB-19, 15.3 µM (inactive).
In the case of `NC(=S)NS(=O)(=O)c1ccc(Cl)cc1`, the GI50 with HL-60, in the test on K562, in the test on SF-295, in the test on IGROV-1, in the test with MDA-MB-231 and in the test on MCF7 was > 100 µM (inactive) each time. In addition, the GI50 in the test on HCC 2998, with SNB-75, in the test on TK-10, with RXF 393, in the test with 786-0 and in the test on NCI-H460 was > 100 µM (inactive) throughout. The GI50 in the test on KM12, in the test on COLO 205, with Malme-3M, with M14, in the test on SK-MEL-2 and in the test on HT-29 was > 100 µM (inactive) in each case. The GI50 with BT-549 and in the test with SNB-19 was > 100 µM (inactive) in each case.
In the case of `CNc1nc2c(C)ccc3nc(N(C)C)[nH]c3c-2n1`, the GI50 in the test on HL-60 was 26.9 µM (inactive); in the test on K562, 12.8 µM (inactive); in the test on SF-295 it was 55.5 µM (inactive); in the test on IGROV-1, 47.8 µM (inactive); in the test with MDA-MB-231, 43.6 µM (inactive); in the test with MCF7 it was 31.5 µM (inactive). Further, the GI50 was 28.2 µM (inactive) in the test with HCC 2998; 41.8 µM (inactive) in the test with SNB-75; > 100 µM (inactive) in the test on TK-10; 25.7 µM (inactive) in the test with RXF 393; 51.3 µM (inactive) with 786-0; 26.2 µM (inactive) in the test on NCI-H460. Further, the GI50 in the test on KM12 is 39.4 µM (inactive); in the test with COLO 205, 26.7 µM (inactive); with Malme-3M it was 31.1 µM (inactive); in the test with M14, 25.4 µM (inactive); with SK-MEL-2, 93.1 µM (inactive); in the test on HT-29, 30.7 µM (inactive). Besides, the GI50 in the test with BT-549 is 84.7 µM (inactive); with SNB-19, 15.3 µM (inactive).
Consider `CSC1=C(C)S/C(=C\c2ccc(/C=C3\SC(C)=C(SC)S3)cc2)S1`, for which the GI50 in the test with HL-60 is > 100 µM (inactive); in the test with K562, > 100 µM (inactive); with SF-295, 88.9 µM (inactive); in the test on IGROV-1, > 100 µM (inactive); with MDA-MB-231, > 100 µM (inactive); in the test on MCF7 it was > 100 µM (inactive). For the same compound, the GI50 with HCC 2998 was > 100 µM (inactive); in the test on SNB-75, 41.6 µM (inactive); with TK-10, 89.3 µM (inactive); in the test with RXF 393, 21.6 µM (inactive); in the test on 786-0, > 100 µM (inactive); in the test on NCI-H460, > 100 µM (inactive). Also, the GI50 with KM12, in the test on COLO 205, in the test with Malme-3M, in the test with M14, in the test on SK-MEL-2 and in the test on HT-29 was > 100 µM (inactive) each time. In addition, the GI50 in the test with BT-549 and in the test with SNB-19 was > 100 µM (inactive) each time.
As to `O=c1oc2c(ccc3ccccc32)cc1C1=CSC2=NCCN12`, the GI50 with HL-60 is 34.7 µM (inactive); in the test with K562, 33.4 µM (inactive); in the test on SF-295, 33 µM (inactive); in the test with IGROV-1, 32.7 µM (inactive); with MDA-MB-231, 38.3 µM (inactive); with MCF7 it was 21.8 µM (inactive). The GI50 was 3.82 µM (inactive) with HCC 2998; > 100 µM (inactive) in the test with SNB-75; 49.3 µM (inactive) in the test with TK-10; 33.5 µM (inactive) in the test on RXF 393; 38.7 µM (inactive) in the test on 786-0; 36.7 µM (inactive) in the test with NCI-H460. Besides, the GI50 was 55.5 µM (inactive) in the test with KM12; 50 µM (inactive) in the test on COLO 205; 58.6 µM (inactive) with Malme-3M; 50.2 µM (inactive) with M14; > 100 µM (inactive) with SK-MEL-2; 45.3 µM (inactive) in the test on HT-29. Also, the GI50 in the test with BT-549 is 26.2 µM (inactive); in the test on SNB-19, 38.6 µM (inactive).
For `C/C(=N\NC(=S)NC(C)(C)C)c1nc2cccnc2[nH]1`, the GI50 with HL-60 was 1.2 µM (inactive); in the test on K562 it was 1.83 µM (inactive); with SF-295 it was 2.8 µM (inactive); with IGROV-1, 3.06 µM (inactive); in the test on MDA-MB-231, 3.55 µM (inactive); in the test with MCF7 it was 0.309 µM (active). The GI50 in the test with HCC 2998 was 3.79 µM (inactive); in the test on SNB-75, 16.3 µM (inactive); with TK-10, 7.35 µM (inactive); in the test on RXF 393, 4.92 µM (inactive); in the test on 786-0, 3.02 µM (inactive); in the test with NCI-H460, 3.03 µM (inactive). Besides, the GI50 is 4.8 µM (inactive) in the test on KM12; 2.26 µM (inactive) with COLO 205; 4.49 µM (inactive) in the test on Malme-3M; 3.33 µM (inactive) in the test with M14; 3.85 µM (inactive) with SK-MEL-2; 1.71 µM (inactive) in the test on HT-29. In addition, the GI50 in the test with BT-549 is 2.55 µM (inactive); in the test with SNB-19 it was 6.93 µM (inactive).
